pIC50: −log10 of the molar value.
Experiments:
[1] = system: SW480 cells; experiment: SW480 proliferation assay; format: cell-based; conditions: Homo sapiens, SW480, SW480; read-out: SW480 Prolif IC50 (G12V)
[2] = system: PC-9 cells; experiment: PC9 proliferation assay; format: cell-based, human; conditions: Homo sapiens, PC-9, PC9; read-out: PC9 Prolif IC50 (G12V)
[3] = target: KRas(G12V) (Homo sapiens (Human), UniProt P01116, G12V); experiment: KRas(G12V) GDP HTRF (BODIPY-GDP exchange TR-FRET); format: biochemical
Chain of KRas(G12V) (P01116-2 other isoform, or with tags, fused parts or gaps G12V): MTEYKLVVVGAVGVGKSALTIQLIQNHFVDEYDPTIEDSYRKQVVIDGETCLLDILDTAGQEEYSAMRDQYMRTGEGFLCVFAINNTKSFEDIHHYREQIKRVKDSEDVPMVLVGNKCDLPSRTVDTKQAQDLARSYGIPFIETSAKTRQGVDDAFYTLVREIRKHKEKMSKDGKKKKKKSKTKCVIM

[4] = target: KRas (Homo sapiens (Human), UniProt P01116); experiment: KRas GDP HTRF (BODIPY-GDP exchange TR-FRET); format: biochemical
Chain of KRas (P01116-2 other isoform, or with tags, fused parts or gaps): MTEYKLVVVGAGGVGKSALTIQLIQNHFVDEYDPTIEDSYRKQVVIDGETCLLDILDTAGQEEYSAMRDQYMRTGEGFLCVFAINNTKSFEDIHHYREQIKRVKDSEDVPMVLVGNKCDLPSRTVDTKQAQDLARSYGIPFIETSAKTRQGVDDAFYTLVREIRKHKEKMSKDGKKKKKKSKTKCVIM
Outline: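 Inhibition of SOS1-mediated exchange of BODIPY-GDP on KRAS G12D, started with 3 nM recombinant human SOS1 and 300 nM BODIPY-GDP and read after 60 min. TR-FRET excitation 337 nm, ratio 520/490 nm ×10,000. IC50 from 4-parameter Hill fit of normalized data.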

pIC50 [1] | pIC50 [2] | pIC50 [3] | pIC50 [4] | SMILES
7.01 | 4.96 |  |  | COC(C)(C)COc1nc2c3c(c(Cl)c(-c4nc(N)cc(C)c4C(F)(F)F)c(F)c3n1)OCCN2[C@H](C)c1cccnc1N (atropisomer, axis not shown) [Example 110a, 6-((R)-4-((R)-1-(2-aminopyridin-3-yl)ethyl)-8-chloro-10-fluoro-2-(2-methoxy-2-methylpropoxy)-5,6-dihydro-4H-[1,4]oxazepino[5,6,7-de]quinazolin-9-yl)-4-methyl-5-(trifluoromethyl)pyridin-2-amine]
8.96 |  | 10.15 | 10.07 | Cc1cc(N)nc(-c2c(Cl)c3c4c(nc(OC[C@H]5CC[C@@H]6CO[C@H](C)CN56)nc4c2F)N([C@H](C)c2cccnc2N)CCO3)c1C(F)(F)F (atropisomer, axis not shown; (aR)) [Example 93d, 6-((R)-4-((R)-1-(2-aminopyridin-3-yl)ethyl)-8-chloro-10-fluoro-2-(((3R,6R,8aR)-3-methylhexahydro-1H-pyrrolo[2,1-c][1,4]oxazin-6-yl)methoxy)-5,6-dihydro-4H-[1,4]oxazepino[5,6,7-de]quinazolin-9-yl)-4-methyl-5-(trifluoromethyl)pyridin-2-amine]
8.72 |  | 10.05 | 9.99 | Cc1c(F)c(N)cc(-c2c(Cl)c3c4c(nc(OC[C@@]56CCCN5C[C@H](F)C6)nc4c2F)N([C@H](C)c2cccnc2N)CCO3)c1C(F)(F)F (atropisomer, axis not shown; (aS)) [Example 76a, 3-((R)-1-(9-((S)-5-amino-4-fluoro-3-methyl-2-(trifluoromethyl)phenyl)-8-chloro-10-fluoro-2-(((2R,7aS)-2-fluorotetrahydro-1H-pyrrolizin-7a(5H)-yl)methoxy)-5,6-dihydro-4H-[1,4]oxazepino[5,6,7-de]quinazolin-4-yl)ethyl)pyridin-2-amine]
7.92 |  | 9.82 | 9.35 | Cc1cc(N)nc(-c2c(Cl)c3c4c(nc(OC[C@@H]5CC[C@H]6COCCN65)nc4c2F)N([C@H](C)c2nccnc2N)CCO3)c1C(F)(F)F (atropisomer, axis not shown; (aS)) [Example 104a, 3-((R)-1-((R)-9-(6-amino-4-methyl-3-(trifluoromethyl)pyridin-2-yl)-8-chloro-10-fluoro-2-(((6S,8aS)-hexahydro-1H-pyrrolo[2,1-c][1,4]oxazin-6-yl)methoxy)-5,6-dihydro-4H-[1,4]oxazepino[5,6,7-de]quinazolin-4-yl)ethyl)pyrazin-2-amine]
 | 4.70 | 5.36 | 4.52 | Cc1cc(N)nc(-c2cc3ncnc4c3c(c2Cl)OCCN4C)c1C(F)(F)F [Example 24, 6-(8-chloro-4-methyl-5,6-dihydro-4H-[1,4]oxazepino[5,6,7-de]quinazolin-9-yl)-4-methyl-5-(trifluoromethyl)pyridin-2-amine]
 |  | 5.33 | 4.46 | Cc1cc(N)nc(-c2cc3ncnc4c3c(c2Cl)OCCN4Cc2cnc[nH]2)c1C(F)(F)F [Example 30, 6-(4-((1H-imidazol-5-yl)methyl)-8-chloro-5,6-dihydro-4H-[1,4]oxazepino[5,6,7-de]quinazolin-9-yl)-4-methyl-5-(trifluoromethyl)pyridin-2-amine]
 |  | 6.36 | 5.55 | Cc1cc(N)nc(-c2cc3ncnc4c3c(c2Cl)OCCN4Cc2cc(F)cnc2N)c1C(F)(F)F [Example 31, 6-(4-((2-amino-5-fluoropyridin-3-yl)methyl)-8-chloro-5,6-dihydro-4H-[1,4]oxazepino[5,6,7-de]quinazolin-9-yl)-4-methyl-5-(trifluoromethyl)pyridin-2-amine]
 |  | 7.28 | 6.57 | Cc1cc(N)nc(-c2cc3ncnc4c3c(c2Cl)OCCN4C2CCc3c(N)cncc32)c1C(F)(F)F (centres unmarked) [Example 37, 7-(9-(6-amino-4-methyl-3-(trifluoromethyl)pyridin-2-yl)-8-chloro-5,6-dihydro-4H-[1,4]oxazepino[5,6,7-de]quinazolin-4-yl)-6,7-dihydro-5H-cyclopenta[c]pyridin-4-amine]
 |  | 5.70 | 5.31 | Cc1cc(N)nc(-c2cc3ncnc4c3c(c2Cl)OC[C@H](CC#N)N4C)c1C(F)(F)F [Example 43, (S)-2-(9-(6-amino-4-methyl-3-(trifluoromethyl)pyridin-2-yl)-8-chloro-4-methyl-5,6-dihydro-4H-[1,4]oxazepino[5,6,7-de]quinazolin-5-yl)acetonitrile]
 |  | 4.96 | 4.34 | Cc1cc(N)nc(-c2cc3ncnc4c3c(c2Cl)OCCN4Cc2cccnc2)c1C(F)(F)F [Example 46, 6-(8-chloro-4-(pyridin-3-ylmethyl)-5,6-dihydro-4H-[1,4]oxazepino[5,6,7-de]quinazolin-9-yl)-4-methyl-5-(trifluoromethyl)pyridin-2-amine]
 |  | 5.62 | 5.02 | Cc1cc(N)nc(-c2cc3ncnc4c3c(c2Cl)OCCN4Cc2cc(Cl)cnc2N)c1C(F)(F)F [Example 52, 6-[13-[(2-amino-5-chloro-3-pyridyl)methyl]-8-chloro-10-oxa-2,4,13-triazatricyclo[7.4.1.05,14]tetradeca-1,3,5(14),6,8-pentaen-7-yl]-4-methyl-5-(trifluoromethyl)pyridin-2-amine]
 |  | 7.39 | 6.51 | Cc1cc(N)nc(-c2cc3nc(OCC4(N(C)C)COC4)nc4c3c(c2Cl)OCCN4Cc2cccnc2N)c1C(F)(F)F [Example 54, 6-(4-((2-aminopyridin-3-yl)methyl)-8-chloro-2-((3-(dimethylamino)oxetan-3-yl)methoxy)-5,6-dihydro-4H-[1,4]oxazepino[5,6,7-de]quinazolin-9-yl)-4-methyl-5-(trifluoromethyl)pyridin-2-amine]
 |  | 7.72 | 6.89 | Cc1cc(N)nc(-c2cc3nc(OCC4(C)CS(=O)(=O)C4)nc4c3c(c2Cl)OCCN4Cc2cccnc2N)c1C(F)(F)F [Example 55, 3-(((9-(6-amino-4-methyl-3-(trifluoromethyl)pyridin-2-yl)-4-((2-aminopyridin-3-yl)methyl)-8-chloro-5,6-dihydro-4H-[1,4]oxazepino[5,6,7-de]quinazolin-2-yl)oxy)methyl)-3-methylthietane 1,1-dioxide]
 |  | 7.66 | 6.80 | Cc1cc(N)nc(-c2cc3ncnc4c3c(c2Cl)OCCN4Cc2ccnnc2N)c1C(F)(F)F [Example 56, 4-((9-(6-amino-4-methyl-3-(trifluoromethyl)pyridin-2-yl)-8-chloro-5,6-dihydro-4H-[1,4]oxazepino[5,6,7-de]quinazolin-4-yl)methyl)pyridazin-3-amine]
 |  | 6.57 | 5.70 | Cc1cc(N)nc(-c2cc3ncnc4c3c(c2Cl)OCCN4Cc2c(C(F)F)ccnc2N)c1C(F)(F)F [Example 57, 6-(4-((2-amino-4-(difluoromethyl)pyridin-3-yl)methyl)-8-chloro-5,6-dihydro-4H-[1,4]oxazepino[5,6,7-de]quinazolin-9-yl)-4-methyl-5-(trifluoromethyl)pyridin-2-amine]
 |  | 7.74 | 7.47 | CNc1cnc(N)c([C@@H](C)N2CCOc3c(Cl)c(-c4nc(N)cc(C)c4C(F)(F)F)cc4ncnc2c34)c1 [Example 58, (R)-3-(1-(9-(6-amino-4-methyl-3-(trifluoromethyl)pyridin-2-yl)-8-chloro-5,6-dihydro-4H-[1,4]oxazepino[5,6,7-de]quinazolin-4-yl)ethyl)-N5-methylpyridine-2,5-diamine]
 |  | 9.28 | 8.18 | Cc1cc(N)nc(-c2c(Cl)c3c4c(nc(OC(C)[C@@H]5CC(F)(F)CN5C)nc4c2F)N([C@H](C)c2cccnc2N)CCO3)c1C(F)(F)F (stereo partly drawn) [Example 71, 6-((R)-4-((R)-1-(2-aminopyridin-3-yl)ethyl)-8-chloro-2-((S)-1-((S)-4,4-difluoro-1-methylpyrrolidin-2-yl)ethoxy)-10-fluoro-5,6-dihydro-4H-[1,4]oxazepino[5,6,7-de]quinazolin-9-yl)-4-methyl-5-(trifluoromethyl)pyridin-2-amine]
 |  | 10.00 | 9.90 | Cc1cc(N)nc(-c2c(Cl)c3c4c(nc(OCC56C[C@H](F)CN5C[C@H](F)C6)nc4c2F)N([C@H](C)c2cccnc2N)CCO3)c1C(F)(F)F (stereo partly drawn) [Example 98b, 6-((9R)-4-((R)-1-(2-aminopyridin-3-yl)ethyl)-8-chloro-2-(((2R,6S)-2,6-difluorotetrahydro-1H-pyrrolizin-7a(5H)-yl)methoxy)-10-fluoro-5,6-dihydro-4H-[1,4]oxazepino[5,6,7-de]quinazolin-9-yl)-4-methyl-5-(trifluoromethyl)pyridin-2-amine]
 |  | 9.85 | 9.60 | Cc1cc(N)nc(-c2c(Cl)c3c4c(nc(OC[C@@]56CCCN5C[C@H](F)C6)nc4c2F)N([C@H](C)c2cc(Cl)cnc2N)CCO3)c1C(F)(F)F [Example 131, 6-(4-((R)-1-(2-amino-5-chloropyridin-3-yl)ethyl)-8-chloro-10-fluoro-2-(((2R,7aS)-2-fluorotetrahydro-1H-pyrrolizin-7a(5H)-yl)methoxy)-5,6-dihydro-4H-[1,4]oxazepino[5,6,7-de]quinazolin-9-yl)-4-methyl-5-(trifluoromethyl)pyridin-2-amine]

SMILES | pIC50 [1] | pIC50 [2] | pIC50 [3] | pIC50 [4]
Cc1cc(N)nc(-c2c(Cl)c3c4c(nc(OCCN5C6CCC5CN(C)C6)nc4c2F)N([C@H](C)c2cccnc2N)CCO3)c1C(F)(F)F [Example 94, 6-((9R)-4-((R)-1-(2-aminopyridin-3-yl)ethyl)-8-chloro-10-fluoro-2-(2-(3-methyl-3,8-diazabicyclo[3.2.1]octan-8-yl)ethoxy)-5,6-dihydro-4H-[1,4]oxazepino[5,6,7-de]quinazolin-9-yl)-4-methyl-5-(trifluoromethyl)pyridin-2-amine] |  |  | 10.15 | 9.76

Reference: patent publication US20240383915A1, “OXAZEPINE COMPOUNDS AND USES THEREOF IN THE TREATMENT OF CANCER” (Genentech, Inc., priority 2021, published 2024)
